{"source": "ChEMBL document CHEMBL1152090", "about": "“Engineering of cyclic peptides with novel inhibiting properties to differentiate two serine proteases, chymotrypsin and subtilisin Carlsberg” (Bioorg Med Chem Lett, 1994)", "key": {"Chymotrypsinogen A [1]": {"target": "T1, Chymotrypsinogen A (Bos taurus, UniProt P00766)", "test": "Compound was tested for the inhibition of chymotrypsin at 138 nM"}, "Chymotrypsinogen A [2]": {"target": "T1, Chymotrypsinogen A", "test": "Compound was tested for the inhibition of chymotrypsin at 69 nM"}, "[3]": {"test": "Compound was tested for the inhibition of subtilisin carlsberg at 138 nM"}, "[4]": {"test": "Compound was tested for the inhibition of subtilisin carlsberg at 23 nM"}, "Chymotrypsinogen A [5]": {"target": "T1, Chymotrypsinogen A", "test": "Compound was tested for the inhibition of chymotrypsin at 120 nM"}, "Chymotrypsinogen A [6]": {"target": "T1, Chymotrypsinogen A", "test": "Compound was tested for the inhibition of chymotrypsin at 276 nM"}, "[7]": {"test": "Compound was tested for the inhibition of subtilisin carlsberg at 300 nM"}, "[8]": {"test": "Compound was tested for the inhibition of subtilisin carlsberg at 690 nM"}, "[9]": {"target": "Chymotrypsinogen A (Bos taurus) (UniProt P00766)", "conditions": "120 nM"}, "[10]": {"target": "Chymotrypsinogen A (Bos taurus) (UniProt P00766)", "conditions": "276 nM"}, "[11]": {"tested_on": "CC[C@H](C)[C@@H]1NC(=O)[C@@H](CCCN=C(N)N)NC(=O)[C@H](Cc2ccc(O)cc2)NC(=O)[C@@H](CCC(=O)O)NC(=O)[C@H](CCSC)NC(=O)[C@@H]([C@@H](C)O)NC(=O)[C@H](N)CCC(=O)NCCCC[C@H](C(N)=O)NC(=O)[C@@H](C(C)C)NC(=O)[C@H](CCCN=C(N)N)NC(=O)[C@@H](CCC(=O)O)NC1=O", "conditions": "276 nM"}, "[12]": {"tested_on": "CC[C@H](C)[C@@H]1NC(=O)[C@@H](CCCN=C(N)N)NC(=O)[C@H](Cc2ccc(O)cc2)NC(=O)[C@@H](CCC(=O)O)NC(=O)[C@H](CCSC)NC(=O)[C@@H]([C@@H](C)O)NC(=O)[C@H](N)CCC(=O)NCCCC[C@H](C(N)=O)NC(=O)[C@@H](C(C)C)NC(=O)[C@H](CCCN=C(N)N)NC(=O)[C@@H](CCC(=O)O)NC1=O", "conditions": "120 nM"}, "[13]": {"tested_on": "CC[C@H](C)[C@@H]1NC(=O)[C@@H](CCCN=C(N)N)NC(=O)[C@H](Cc2ccc(O)cc2)NC(=O)[C@@H](CCC(=O)O)NC(=O)[C@H](CCSC)NC(=O)[C@@H]([C@@H](C)O)NC(=O)[C@H](N)CCC(=O)NCCCC[C@H](C(N)=O)NC(=O)[C@@H](C(C)C)NC(=O)[C@H](CCCN=C(N)N)NC(=O)[C@@H](CCC(=O)O)NC1=O", "conditions": "276 nM", "remark": "listed apart in the source"}, "[14]": {"tested_on": "CC[C@H](C)[C@@H]1NC(=O)[C@@H](CCCN=C(N)N)NC(=O)[C@H](Cc2ccc(O)cc2)NC(=O)[C@@H](CCC(=O)O)NC(=O)[C@H](CCSC)NC(=O)[C@@H]([C@@H](C)O)NC(=O)[C@H](N)CCC(=O)NCCCC[C@H](C(N)=O)NC(=O)[C@@H](C(C)C)NC(=O)[C@H](CCCN=C(N)N)NC(=O)[C@@H](CCC(=O)O)NC1=O", "conditions": "120 nM", "remark": "listed apart in the source"}}}
{"compound": "CC[C@H](C)[C@@H]1NC(=O)[C@@H](NC(C)=O)CC(=O)/N=C(/N)NCCC[C@@H](C(N)=O)NC(=O)[C@H](Cc2ccc(O)cc2)NC(=O)[C@H](CCC(=O)O)NC(=O)[C@H](CCSC)NC(=O)[C@H]([C@@H](C)O)NC(=O)[C@H](C(C)C)NC1=O", "values": [{"measurement": "Ki", "setting": "Chymotrypsinogen A [1]", "value": 191, "unit": "nM"}, {"measurement": "Ki", "setting": "Chymotrypsinogen A [2]", "value": 203, "unit": "nM"}, {"measurement": "Ki", "setting": "[3]", "value": 116, "unit": "nM"}, {"measurement": "Ki", "setting": "[4]", "value": 128, "unit": "nM"}]}
{"compound": "CC[C@H](C)[C@@H]1NC(=O)[C@H](CCCNC(=N)N)NC(=O)[C@H](Cc2ccc(O)cc2)NC(=O)[C@H](CCC(=O)O)NC(=O)[C@H](CCSC)NC(=O)[C@H]([C@@H](C)O)NC(=O)[C@@H](N)CCC(=O)NCCCC[C@@H](C(N)=O)NC(=O)[C@H](C(C)C)NC(=O)[C@H](CCCNC(=N)N)NC(=O)[C@H](CCC(=O)O)NC1=O", "values": [{"measurement": "Ki", "setting": "Chymotrypsinogen A [5]", "value": 668, "unit": "nM"}, {"measurement": "Ki", "setting": "Chymotrypsinogen A [6]", "value": 656, "unit": "nM"}, {"measurement": "Ki", "setting": "[7]", "value": 775, "unit": "nM"}, {"measurement": "Ki", "setting": "[8]", "value": 786, "unit": "nM"}]}
{"compound": "CC[C@H](C)[C@@H]1NC(=O)[C@@H](CCCN=C(N)N)NC(=O)[C@H](Cc2ccc(O)cc2)NC(=O)[C@@H](CCC(=O)O)NC(=O)[C@H](CCSC)NC(=O)[C@@H]([C@@H](C)O)NC(=O)[C@H](N)CCC(=O)NCCCC[C@H](C(N)=O)NC(=O)[C@@H](C(C)C)NC(=O)[C@H](CCCN=C(N)N)NC(=O)[C@@H](CCC(=O)O)NC1=O", "values": [{"measurement": "k cat", "setting": "[9]", "value": 55.1, "unit": "s⁻¹"}, {"measurement": "k cat", "setting": "[10]", "value": 45.8, "unit": "s⁻¹"}]}
{"compound": "Chymotrypsinogen A (Bos taurus) (from UniProt P00766)", "values": [{"measurement": "Km", "setting": "[11]", "value": 298, "unit": "µM"}, {"measurement": "Vmax", "setting": "[12]", "value": "3.89e-07", "unit": "M⁻¹ s⁻¹"}, {"measurement": "Vmax", "setting": "[13]", "value": "3.23e-07", "unit": "M⁻¹ s⁻¹"}, {"measurement": "Km", "setting": "[14]", "value": 310, "unit": "µM"}]}
